According to US20250154105A1, “POLYCYCLIC COMPOUND AND USE THEREOF” (TYK MEDICINES, INC., priority 2021, published 2025):

Tested on: YAP-TEAD
Experiment: YAP-TEAD inhibitor activity by Nano luciferase method (8xGTiiC-nLuc reporter in 293T cells)
Assay type: cell-based
Settings: Homo sapiens, HEK-293T, 48 hours incubation, read-out: Nano-luciferase detection (IC50)
Outline: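 IC50 derived from nLuc reporter signal normalised to 0 nM wells, after 48 h, 37 °C compound exposure (1:3.16 series, highest 10,000 nM). Cells: 293T transfected with 8xGTiiC-nLuc/CMV-fLuc plasmid, plated at 2000 per well.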

Row | SMILES | IC50 [µM]
1 | C[C@H](NC(=O)c1ccc2c(c1)c1cnccc1c(=O)n2-c1ccc(C(F)(F)F)cc1)c1ccccn1 [Example T-253] | ≤ 1
2 | C[C@H](NC(=O)c1ccc2c(c1)c1nn(C)cc1c(=O)n2-c1ccc(C(F)(F)F)cc1)c1ccccn1 [Example T-105] | ≤ 1
3 | Cc1cc(=O)n(-c2ccc(C(F)(F)F)cc2)c2ccc(C(=O)N[C@@H](C)c3ccccn3)cc12 [Example T-277] | ≤ 1
4 | CNS(=O)(=O)c1ccc2c(c1)c1cn(C)nc1c(=O)n2-c1ccc(C(F)(F)F)cc1 [Example T-32] | ≤ 1
5 | C[C@H](NC(=O)c1ccc2c(c1)c1ccccc1c(=O)n2-c1ccc(C(F)(F)F)cc1)c1ccccn1 [Example T-272] | ≤ 1
